Legend:
human 5-HT1A receptor = molecular target: T1, human 5-HT1A receptor (Homo sapiens, UniProt P08908); experiment: GPCR radioligand binding assay, [3H]-8-OH-DPAT displacement, HEK293 membranes; settings: for 5-HT1A % Inhibition by plate position: 10 µM; for %inh 5-HT1A average: average of exp_1 and exp_2; for %inh 5-HT1A exp_1: replicate exp_1; for %inh 5-HT1A exp_2: replicate exp_2; for %inh 5-HT1A corrected*: average, values below 0 and above 100% were set as 0 and 100
T1 construct: expressed in transfected cells
T1 sequence (P08908 1-422): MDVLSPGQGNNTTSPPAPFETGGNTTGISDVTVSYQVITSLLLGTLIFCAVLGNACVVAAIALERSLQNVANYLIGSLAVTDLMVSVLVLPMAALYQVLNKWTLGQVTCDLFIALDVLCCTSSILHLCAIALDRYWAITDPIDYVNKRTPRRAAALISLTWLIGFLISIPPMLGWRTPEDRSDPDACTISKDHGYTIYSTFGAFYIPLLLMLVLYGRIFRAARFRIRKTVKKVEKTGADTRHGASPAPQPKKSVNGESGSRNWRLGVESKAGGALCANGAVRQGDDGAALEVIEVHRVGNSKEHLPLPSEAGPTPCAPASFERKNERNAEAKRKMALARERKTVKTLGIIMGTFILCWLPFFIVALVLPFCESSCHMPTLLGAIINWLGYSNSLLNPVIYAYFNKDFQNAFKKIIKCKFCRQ

human 5-HT6 receptor = molecular target: T2, human 5-HT6 receptor (Homo sapiens, UniProt P50406); experiment: GPCR radioligand binding assay, [3H]-LSD displacement, HEK293 membranes; settings: for 5-HT6 % Inhibition by plate position: 10 µM; for %inh 5-HT6 average: average of exp_1 and exp_2; for %inh 5-HT6 corrected*: average, values below 0 and above 100% were set as 0 and 100; for %inh 5-HT6 exp_1: replicate exp_1; for %inh 5-HT6 exp_2: replicate exp_2
T2 construct: expressed in transfected cells
T2 sequence (P50406 whole entry): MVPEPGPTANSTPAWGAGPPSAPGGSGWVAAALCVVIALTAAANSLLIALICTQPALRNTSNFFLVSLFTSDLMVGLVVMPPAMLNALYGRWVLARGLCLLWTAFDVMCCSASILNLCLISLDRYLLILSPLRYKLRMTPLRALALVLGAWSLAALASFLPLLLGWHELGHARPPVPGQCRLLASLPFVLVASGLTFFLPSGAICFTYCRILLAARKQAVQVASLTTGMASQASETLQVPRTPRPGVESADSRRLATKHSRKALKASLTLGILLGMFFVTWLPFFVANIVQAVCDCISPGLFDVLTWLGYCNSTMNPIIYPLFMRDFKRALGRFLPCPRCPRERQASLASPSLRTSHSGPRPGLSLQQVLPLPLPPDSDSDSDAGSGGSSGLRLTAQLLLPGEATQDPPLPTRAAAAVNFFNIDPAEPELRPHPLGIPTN

human 5-HT7b receptor = molecular target: T3, human 5-HT7b receptor (Homo sapiens, UniProt P34969); experiment: GPCR radioligand binding assay, [3H]-5-CT displacement, HEK293 membranes; settings: for 5-HT7 % Inhibition by plate position: 10 µM; for %inh 5-HT7 exp_1: replicate exp_1; for %inh 5-HT7 exp_2: replicate exp_2
T3 construct: expressed in transfected cells
T3 sequence (P34969 1-432): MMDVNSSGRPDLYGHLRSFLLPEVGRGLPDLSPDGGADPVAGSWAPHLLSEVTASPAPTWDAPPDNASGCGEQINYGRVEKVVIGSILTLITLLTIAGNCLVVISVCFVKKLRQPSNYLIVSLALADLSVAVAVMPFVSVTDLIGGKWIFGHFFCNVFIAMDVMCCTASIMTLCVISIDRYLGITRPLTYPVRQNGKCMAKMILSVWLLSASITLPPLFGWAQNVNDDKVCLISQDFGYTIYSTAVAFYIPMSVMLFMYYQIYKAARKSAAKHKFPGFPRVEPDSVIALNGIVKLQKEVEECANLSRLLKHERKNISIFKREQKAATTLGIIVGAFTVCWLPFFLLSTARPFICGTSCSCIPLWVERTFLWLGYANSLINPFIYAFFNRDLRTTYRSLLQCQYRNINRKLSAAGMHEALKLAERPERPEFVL

Row | Structure (SMILES) | 5-HT1A % Inhibition by plate position (human 5-HT1A receptor) [%] | %inh 5-HT1A average (human 5-HT1A receptor) [%] | %inh 5-HT1A exp_1 (human 5-HT1A receptor) [%] | %inh 5-HT1A exp_2 (human 5-HT1A receptor) [%] | 5-HT6 % Inhibition by plate position (human 5-HT6 receptor) [%] | %inh 5-HT6 average (human 5-HT6 receptor) [%] | %inh 5-HT6 corrected* (human 5-HT6 receptor) [%] | %inh 5-HT6 exp_1 (human 5-HT6 receptor) [%] | %inh 5-HT6 exp_2 (human 5-HT6 receptor) [%] | 5-HT7 % Inhibition by plate position (human 5-HT7b receptor) [%] | %inh 5-HT7 exp_1 (human 5-HT7b receptor; 5-HT7) [%] | %inh 5-HT7 exp_2 (human 5-HT7b receptor; 5-HT7) [%] | %inh 5-HT1A corrected* (human 5-HT1A receptor) [%] | %inh 5-HT7 average (human 5-HT7b receptor; 5-HT7, average of exp_1 and exp_2) [%]
1 | O=C1CCN(c2ccccn2)CC1 [G8] | 0 | -7 | 4 | -18 | 7 | 7 | 7 | 0 | 15 | 29 | 34 | 24 | – | –
2 | O=c1ccc2c([nH]1)CCCC2 [C5] | 0 | -1.35 | -18 | 15 | 46 | 46 | 46 | 39 | 53 | 1 | 0.605 | 1.43 | – | –
3 | CCc1ccc(NC2=NCCCS2)cc1 [D2] | – | 29 | 30 | 27 | 16 | 16 | 16 | 19 | 13 | 6 | 12 | 0.291 | 29 | –
4 | COc1ccc(C2=CCNCC2)cc1 [G1] | – | 17 | 14 | 20 | 49 | 49 | 49 | 49 | 49 | 19 | 17 | 20 | 17 | –
5 | N#CC1CCS(=O)(=O)C1 (stereo not shown) [F2] | 0 | -0.934 | 12 | -14 | 22 | 22 | 22 | 22 | 22 | 20 | 21 | 19 | – | –
6 | NC1CCc2ccccc21 (stereo not shown) [B4] | – | 17 | 19 | 16 | 16 | 16 | 16 | 16 | 17 | 28 | 28 | 28 | 17 | –
7 | O=C(O)c1ccc(CN2CCOCC2)cc1 [H1] | – | 5 | 11 | -0.56 | 44 | 44 | 44 | 48 | 41 | 17 | 11 | 23 | 5 | –
8 | O=C(CN1CCNCC1)c1ccccc1 [E5] | – | 6 | 9.52 | 3 | 49 | 49 | 49 | 45 | 54 | 8 | 14 | 3 | 6 | –
9 | CCc1nccn1CC(=O)O [G11] | – | 8.43 | 3.26 | 14 | 0 | -2 | 0 | -9 | 5 | 0 | -14 | 8 | 8.43 | -3.32

Source: publication PMC8159961, “Exploring protein hotspots by optimized fragment pharmacophores” (Nature Communications, 2021)
